PubChem BioAssay AID328 (DTP/NCI, 2004)
Values joined by “and” are separate entries in the source; they are usually repeats but may differ in a detail not shown here. Equal entries are not always repeated. Toxic doses and inconclusive results are not listed.

System: BDF1 mice, P388 leukemia ip, median survival T/C
Assay: NCI In Vivo Anticancer Drug Screen. Data for tumor model P388 Leukemia (intraperitoneal) in B6D2F1 (BDF1) mice
Settings: endpoint: median survival time, higher = longer survival
How it was run: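 Read-out is survival of treated animals expressed relative to the vehicle group, as a T/C ratio.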

[1] = dose: 6.25 mg/kg/injection, schedule: Q04DX003 (ip), vehicle: water
[2] = dose: 12.5 mg/kg/injection, schedule: Q04DX003 (ip), vehicle: water
[3] = dose: 25.0 mg/kg/injection, schedule: Q04DX003 (ip), vehicle: water
[4] = dose: 50.0 mg/kg/injection, schedule: Q04DX003 (ip), vehicle: water
[5] = dose: 50.0 mg/kg/injection, schedule: Q01DX009 (ip), vehicle: saline with Tween-80
[6] = dose: 100.0 mg/kg/injection, schedule: Q01DX009 (ip), vehicle: saline with Tween-80
[7] = dose: 200.0 mg/kg/injection, schedule: Q01DX009 (ip), vehicle: saline with Tween-80
[8] = dose: 100.0 mg/kg/injection, schedule: Q01DX001 (ip), vehicle: saline with Tween-80
[9] = dose: 200.0 mg/kg/injection, schedule: Q01DX001 (ip), vehicle: saline with Tween-80
[10] = dose: 400.0 mg/kg/injection, schedule: Q01DX001 (ip), vehicle: saline with Tween-80
[11] = dose: 100.0 mg/kg/injection, schedule: Q04DX003 (ip), vehicle: saline with Tween-80
[12] = dose: 200.0 mg/kg/injection, schedule: Q04DX003 (ip), vehicle: saline with Tween-80
[13] = dose: 400.0 mg/kg/injection, schedule: Q04DX003 (ip), vehicle: saline with Tween-80
[14] = dose: 25.0 mg/kg/injection, schedule: Q01DX009 (ip), vehicle: saline with Tween-80
[15] = dose: 12.5 mg/kg/injection, schedule: Q01DX009 (ip), vehicle: saline with Tween-80
[16] = dose: 100.0 mg/kg/injection, schedule: Q04DX003 (ip), vehicle: Klucel (hydroxypropylcellulose) (HPC)

For NS(=O)(=O)c1ccc(NC(=S)NC(=O)/C=C/c2ccccc2)cc1, the T/C (dose: 100.0 mg/kg/injection, schedule: Q04DX003 (sc), vehicle: olive oil, sesame oil, peanut oil) was 90 % of control, the T/C (dose: 200.0 mg/kg/injection, schedule: Q04DX003 (sc), vehicle: olive oil, sesame oil, peanut oil) was 90 % of control and the T/C (dose: 400.0 mg/kg/injection, schedule: Q04DX003 (sc), vehicle: olive oil, sesame oil, peanut oil) was 90 % of control.
OCc1ccccc1[S+]1OCc2ccccc21 (centres undefined) was tested, and the T/C (dose: 50.0 mg/kg/injection, schedule: Q01DX009 (ip), vehicle: other) was 104 % of control, the T/C (dose: 100.0 mg/kg/injection, schedule: Q01DX009 (ip), vehicle: other) was 97 % of control and the T/C (dose: 200.0 mg/kg/injection, schedule: Q01DX009 (ip), vehicle: other) was 108 % of control.
For O=C(O)CSc1cc(-c2ccc(Cl)cc2)s[s+]1, the T/C (dose: 1.56 mg/kg/injection, schedule: Q01DX009 (ip), vehicle: water) was 104 % of control, the T/C (dose: 2.0 mg/kg/injection, schedule: Q04DX003 (ip), vehicle: water) was 100 % of control and the T/C (dose: 3.12 mg/kg/injection, schedule: Q01DX009 (ip), vehicle: water) was 115 % of control. The T/C (dose: 4.0 mg/kg/injection, schedule: Q04DX003 (ip), vehicle: water) was 112 % of control, the T/C (dose: 6.25 mg/kg/injection, schedule: Q01DX009 (ip), vehicle: water) was 112 % of control and the T/C [1] was 117 % of control. The T/C (dose: 8.0 mg/kg/injection, schedule: Q04DX003 (ip), vehicle: water) was 100 % of control, the T/C (dose: 12.5 mg/kg/injection, schedule: Q01DX009 (ip), vehicle: water) was 107 % of control and the T/C [2] was 100 % of control. For the same compound, the T/C (dose: 16.0 mg/kg/injection, schedule: Q04DX003 (ip), vehicle: water) was 90 % of control, the T/C [3] was 97 % of control and the T/C [4] was 97 % of control.
With ClCCCN1CCCCC1CCl (centres undefined) the T/C (dose: 3.12 mg/kg/injection, schedule: Q04DX003 (ip), vehicle: saline) was 102 % of control, the T/C (dose: 6.25 mg/kg/injection, schedule: Q01DX009 (ip), vehicle: saline) was 242 % of control and the T/C (dose: 12.5 mg/kg/injection, schedule: Q01DX009 (ip), vehicle: saline) was 254 % of control and 96 % of control. For the same compound, the T/C (dose: 12.5 mg/kg/injection, schedule: Q04DX003 (ip), vehicle: saline) was 151 % of control, the T/C (dose: 25.0 mg/kg/injection, schedule: Q04DX003 (ip), vehicle: saline) was 236 % of control and 182 % of control and the T/C (dose: 40.0 mg/kg/injection, schedule: Q04DX003 (ip), vehicle: saline) was 90 % of control.
With COC(=O)C(Sc1ccccc1N)C1SC(=S)N(Cc2ccccc2)C1=O (centres undefined) the T/C [5] was 95 % of control, the T/C [6] was 104 % of control and the T/C [7] was 113 % of control.
With Cn1c(N)c(N=Nc2ccccc2)c(=O)[nH]c1=O the T/C [8] was 100 % of control, the T/C [9] was 102 % of control and the T/C [10] was 90 % of control.
CC1(C)N=C(c2ccc3ccccc3c2)CC1C#N (centres undefined) was tested, and the T/C [8] was 100 % of control, the T/C [9] was 100 % of control and the T/C [10] was 95 % of control.
In the case of CS(=O)CC(O)(c1ccc(F)cc1)C1CC1 (centres undefined), the T/C [5] is reported as 99 % of control and the T/C [6] is reported as 103 % of control.
O=C(Nc1ccc([N+](=O)[O-])cc1Cl)N(CCO)C1CCCCC1 was tested, and the T/C [6] was 105 % of control, the T/C [7] was 100 % of control and the T/C (dose: 400.0 mg/kg/injection, schedule: Q01DX009 (ip), vehicle: saline with Tween-80) was 90 % of control.
With COc1ccc(C(C)c2ccccc2)cc1 (centres undefined) the T/C [11] was 110 % of control, the T/C [12] was 105 % of control and the T/C [13] was 100 % of control.
In the case of O=S(=O)(c1ccccc1)c1nn2nnnc2c2ccccc12, the T/C [14] is reported as 86 % of control, the T/C [5] is reported as 94 % of control and the T/C [6] is reported as 95 % of control.
In the case of CCCCCCCCCCCCCCCCS(=O)(=O)N/N=C/C(=O)O, the T/C (dose: 12.5 mg/kg/injection, schedule: Q01DX009 (ip), vehicle: other) is reported as 116 % of control.
With COc1ccc(OC)c2c(/C=C/c3ccc(N(C)C)cc3)ccnc12 the T/C [15] was 108 % of control, the T/C [14] was 103 % of control and the T/C [5] was 94 % of control and 110 % of control. For the same compound, the T/C [6] was 103 % of control and the T/C [7] was 91 % of control.
With CCCCC(C(C)=O)C(C)C (centres undefined) the T/C (dose: 75.0 mg/kg/injection, schedule: Q01DX009 (ip), vehicle: Klucel (hydroxypropylcellulose) (HPC)) was 90 % of control, the T/C [16] was 111 % of control and the T/C (dose: 150.0 mg/kg/injection, schedule: Q01DX009 (ip), vehicle: Klucel (hydroxypropylcellulose) (HPC)) was 90 % of control. For the same compound, the T/C (dose: 200.0 mg/kg/injection, schedule: Q04DX003 (ip), vehicle: Klucel (hydroxypropylcellulose) (HPC)) was 96 % of control, the T/C (dose: 300.0 mg/kg/injection, schedule: Q01DX009 (ip), vehicle: Klucel (hydroxypropylcellulose) (HPC)) was 95 % of control and the T/C (dose: 400.0 mg/kg/injection, schedule: Q04DX003 (ip), vehicle: Klucel (hydroxypropylcellulose) (HPC)) was 96 % of control.
O=c1cccc2n1CC1CNC[C@H]2C1 was tested, and the T/C (dose: 1.5 mg/kg/injection, schedule: Q01DX010 (ip), vehicle: saline) was 104 % of control, the T/C (dose: 3.0 mg/kg/injection, schedule: Q01DX010 (ip), vehicle: saline) was 109 % of control and the T/C (dose: 6.0 mg/kg/injection, schedule: Q01DX010 (ip), vehicle: saline) was 109 % of control.
In the case of COc1cccc(CN2CCNCC2)c1, the T/C [1] is reported as 87 % of control, the T/C [2] is reported as 89 % of control and the T/C [3] is reported as 93 % of control. The T/C [4] was 101 % of control and the T/C (dose: 100.0 mg/kg/injection, schedule: Q04DX003 (ip), vehicle: water) was 94 % of control.
In the case of O=C(Nc1ccc2c(c1)OCO2)O/N=C\c1ccccn1, the T/C [11] is reported as 118 % of control, the T/C [12] is reported as 95 % of control and the T/C [13] is reported as 100 % of control.
CC1OC(O[C@@H]2C=C3CC[C@@H]4[C@H](CC[C@]5(C)[C@@H](c6ccc(=O)oc6)CC[C@]45O)[C@@]3(C)CC2)C(O)C(OC2OC(CO)C(O)C(O)C2O)C1O (some centres undefined) was tested, and the T/C (dose: 0.8 mg/kg/injection, schedule: Q01DX010 (sc), vehicle: steriod suspending solution) was 100 % of control, the T/C (dose: 1.6 mg/kg/injection, schedule: Q01DX010 (sc), vehicle: steriod suspending solution) was 95 % of control and the T/C (dose: 2.0 mg/kg/injection, schedule: Q01DX010 (ip), vehicle: carboxymethylcellulose (CMC)) was 110 % of control. The T/C (dose: 3.25 mg/kg/injection, schedule: Q01DX010 (sc), vehicle: steriod suspending solution) was 110 % of control, the T/C (dose: 4.0 mg/kg/injection, schedule: Q01DX010 (ip), vehicle: carboxymethylcellulose (CMC)) was 100 % of control and the T/C (dose: 7.5 mg/kg/injection, schedule: Q01DX010 (sc), vehicle: steriod suspending solution) was 115 % of control. The T/C (dose: 8.0 mg/kg/injection, schedule: Q01DX010 (ip), vehicle: carboxymethylcellulose (CMC)) was 95 % of control, the T/C (dose: 15.0 mg/kg/injection, schedule: Q01DX010 (sc), vehicle: steriod suspending solution) was 105 % of control and the T/C (dose: 30.0 mg/kg/injection, schedule: Q01DX010 (sc), vehicle: steriod suspending solution) was 100 % of control.
In the case of CSc1ccc(NC(=O)CCl)cc1, the T/C [15] is reported as 107 % of control, the T/C [14] is reported as 105 % of control and the T/C [5] is reported as 106 % of control.
O=c1oc2ccccc2c2c1Cc1c(oc3ccc4ccccc4c3c1=O)O2 was tested, and the T/C [5] was 91 % of control, the T/C [6] was 95 % of control and the T/C [7] was 92 % of control.
With c1ccc(-c2oc3ccc4ccccc4c3c2-c2ccc(OCCN3CCCC3)cc2)cc1 the T/C (dose: 10.0 mg/kg/injection, schedule: Q01DX009 (ip), vehicle: Klucel (hydroxypropylcellulose) (HPC)) was 105 % of control, the T/C (dose: 20.0 mg/kg/injection, schedule: Q01DX009 (ip), vehicle: Klucel (hydroxypropylcellulose) (HPC)) was 95 % of control and the T/C (dose: 40.0 mg/kg/injection, schedule: Q01DX009 (ip), vehicle: Klucel (hydroxypropylcellulose) (HPC)) was 105 % of control. For the same compound, the T/C (dose: 80.0 mg/kg/injection, schedule: Q01DX009 (ip), vehicle: Klucel (hydroxypropylcellulose) (HPC)) was 100 % of control.
For COc1cc(NS(C)(=O)=O)ccc1N, the T/C (dose: 100.0 mg/kg/injection, schedule: Q01DX009 (ip), vehicle: Klucel (hydroxypropylcellulose) (HPC)) was 100 % of control, the T/C [16] was 100 % of control and the T/C (dose: 200.0 mg/kg/injection, schedule: Q01DX009 (ip), vehicle: Klucel (hydroxypropylcellulose) (HPC)) was 90 % of control.
